Several values for one entry are separate records, joined by “and”; a condition that tells them apart may be missing. Equal values may be shown once. Results filed as inconclusive are left out.

Among the data in PubChem BioAssay AID244 (DTP/NCI, 2004) are T/C values, retold here.

The assay has as its system CD2F1 mice, Lymphoma 8 ip, survival T/C. Put plainly: NCI In Vivo Anticancer Drug Screen. Data for tumor model Lymphoma 8 (intraperitoneal) in CD2F1 (CDF1) mice. The following applies: higher = longer survival. On the procedure:
The antitumor activity of compounds was measured in mice bearing transplantable tumors. Survival or tumor size were measured and the results are expressed as the measurement made in the treated group (T) divided by the measurement made in the vehicle treated control group (C). The tumor model used in this assay is Lymphoma 8 (intraperitoneal) in CD2F1 (CDF1) mice

For the molecule `CC[C@H]1CN2CCc3cc(OC)c(OC)cc3[C@@H]2C[C@@H]1C[C@H]1NCCc2cc(OC)c(OC)cc21`, the T/C by setting is: (endpoint: median survival time, dose: 1.87 mg/kg/injection, schedule: Q04DX003 (ip), vehicle: saline) 107 % of control; (endpoint: median survival time, dose: 2.5 mg/kg/injection, schedule: Q04DX003 (ip), vehicle: saline) 103 % of control; (endpoint: median survival time, dose: 3.7 mg/kg/injection, schedule: Q04DX003 (ip), vehicle: water) 107 % of control; (endpoint: median survival time, dose: 3.75 mg/kg/injection, schedule: Q04DX003 (ip), vehicle: saline) 111 % of control; (endpoint: median survival time, dose: 5.0 mg/kg/injection, schedule: Q04DX003 (ip), vehicle: saline) 100 % of control; (endpoint: median survival time, dose: 7.5 mg/kg/injection, schedule: Q04DX003 (ip), vehicle: saline) 111 % of control. The T/C by setting is: (endpoint: median survival time, dose: 7.5 mg/kg/injection, schedule: Q04DX003 (ip), vehicle: water) 107 % of control; (endpoint: median survival time, dose: 10.0 mg/kg/injection, schedule: Q04DX003 (ip), vehicle: saline) 100 % of control; (endpoint: median survival time, dose: 15.0 mg/kg/injection, schedule: Q04DX003 (ip), vehicle: saline) 118 % of control; (endpoint: median survival time, dose: 15.0 mg/kg/injection, schedule: Q04DX003 (ip), vehicle: water) 107 % of control; (endpoint: median survival time, dose: 20.0 mg/kg/injection, schedule: Q04DX003 (ip), vehicle: saline) 103 % of control.

For the molecule `c1ccc(CNc2ncnc3[nH]ncc23)cc1`, the T/C is, setting by setting: (endpoint: survival time, mean or median, dose: 8.0 mg/kg/injection, schedule: Q01DX010 (ip), vehicle: saline) 100 % of control; (endpoint: survival time, mean or median, dose: 16.0 mg/kg/injection, schedule: Q01DX010 (ip), vehicle: saline) 95 % of control; (endpoint: survival time, mean or median, dose: 32.0 mg/kg/injection, schedule: Q01DX010 (ip), vehicle: saline) 95 % of control and 100 % of control; (endpoint: survival time, mean or median, dose: 64.0 mg/kg/injection, schedule: Q01DX010 (ip), vehicle: saline) 90 % of control.

Regarding `N=[N+]=CC(=O)OCC(N)C(=O)O` (stereo unspecified), the T/C (endpoint: median survival time, dose: 2.0 mg/kg/injection, schedule: Q14DX016 (ip), vehicle: saline) is 150 % of control.
